Measurements published in ChEMBL document CHEMBL3885861, “Open TG-GATES”.

Organism: Rattus norvegicus
Assay: Open TG-GATES - Regimen: Daily Repeat
Format: toxicity, organism-based, Sprague-Dawley
Set-up: regimen Daily Repeat, gender Male, age 6 weeks
Conditions: in vivo, po, 100 mg/kg, route gavage, dose level High; for APTT / Bas / Eos / Fbg / Hb / Ht / Lym / MCH / MCHC / MCV / Mono / Neu / PT / Plat / RBC / Ret / WBC: tissue Blood; for KIDNEY_L / KIDNEY_R / KIDNEY_TOTAL: tissue Kidney; for LIVER: tissue Liver; for A/G / ALP / ALT / AST / BUN / CRE / Ca / Cl / DBIL / GLC / IP / K / LDH / Na / PL / RALB / TBIL / TC / TG / TP / gamma-GTP: tissue Plasma

CCCc1cc(=O)[nH]c(=S)[nH]1 [PROPYLTHIOURACIL]
TERMINAL_BW (72 h, time 3 day): 209.7 g
APTT (72 h, time 3 day): 16 s
Bas (72 h, time 3 day): 0%
Eos (72 h, time 3 day): 0.8%
Fbg (72 h, time 3 day): 238.8 mg/dL
Hb (72 h, time 3 day): 13.2 g/dL
Ht (72 h, time 3 day): 39.6%
Lym (72 h, time 3 day): 80.6%
MCH (72 h, time 3 day): 22 pg
MCHC (72 h, time 3 day): 33.3%
MCV (72 h, time 3 day): 65.9 fL
Mono (72 h, time 3 day): 6.4%
Neu (72 h, time 3 day): 12.2%
PT (72 h, time 3 day): 12.1 s
Plat (72 h, time 3 day): 110 x10_4/uL
RBC (72 h, time 3 day): 601.4 x10_4/ul
Ret (72 h, time 3 day): 7.1%
WBC (72 h, time 3 day): 144 x10_2/uL
KIDNEY_L (72 h, time 3 day): 0.9 g
KIDNEY_R (72 h, time 3 day): 0.9 g
KIDNEY_TOTAL (72 h, time 3 day): 1.8 g
LIVER (72 h, time 3 day): 12.2 g
A/G (72 h, time 3 day): 1.7
ALP (72 h, time 3 day): 870.8 IU/L
ALT (72 h, time 3 day): 36.4 IU/L
AST (72 h, time 3 day): 60.4 IU/L
BUN (72 h, time 3 day): 20.2 mg/dL
CRE (72 h, time 3 day): 0.5 mg/dL
Ca (72 h, time 3 day): 11.5 mg/dL
Cl (72 h, time 3 day): 105.4 meq/L
DBIL (72 h, time 3 day): 0.008 mg/dL
GLC (72 h, time 3 day): 191.6 mg/dL
IP (72 h, time 3 day): 7.1 mg/dL
K (72 h, time 3 day): 4.5 meq/L
LDH (72 h, time 3 day): 181.2 IU/L
Na (72 h, time 3 day): 138.6 meq/L
PL (72 h, time 3 day): 199.6 mg/dL
RALB (72 h, time 3 day): 3.8 g/dL
TBIL (72 h, time 3 day): 0.3 mg/dL
TC (72 h, time 3 day): 116.2 mg/dL
TG (72 h, time 3 day): 94.2 mg/dL
TP (72 h, time 3 day): 6.1 g/dL
gamma-GTP (72 h, time 3 day): 1 IU/L
TERMINAL_BW ([…], time 7 day): 223.8 g
TERMINAL_BW ([…], time 14 day): 241.1 g
TERMINAL_BW ([…], time 28 day): 232 g
APTT ([…], time 7 day): 15.8 s
Bas ([…], time 7 day): 0%
Eos ([…], time 7 day): 1%
Fbg ([…], time 7 day): 239.2 mg/dL
Hb ([…], time 7 day): 13.7 g/dL
Ht ([…], time 7 day): 41.4%
Lym ([…], time 7 day): 81.2%
MCH ([…], time 7 day): 20.9 pg
MCHC ([…], time 7 day): 33.1%
MCV ([…], time 7 day): 63.2 fL
Mono ([…], time 7 day): 5.4%
Neu ([…], time 7 day): 12.4%
PT ([…], time 7 day): 13 s
Plat ([…], time 7 day): 113.5 x10_4/uL
RBC ([…], time 7 day): 655.4 x10_4/ul
Ret ([…], time 7 day): 3.8%
WBC ([…], time 7 day): 123.8 x10_2/uL
APTT ([…], time 14 day): 17 s
Bas ([…], time 14 day): 0%
Eos ([…], time 14 day): 0%
Fbg ([…], time 14 day): 189.4 mg/dL
Hb ([…], time 14 day): 14 g/dL
Ht ([…], time 14 day): 41.9%
Lym ([…], time 14 day): 79.4%
MCH ([…], time 14 day): 20.3 pg
MCHC ([…], time 14 day): 33.3%
MCV ([…], time 14 day): 61.1 fL
Mono ([…], time 14 day): 6.2%
Neu ([…], time 14 day): 14.4%
PT ([…], time 14 day): 13.9 s
Plat ([…], time 14 day): 93.2 x10_4/uL
RBC ([…], time 14 day): 686.2 x10_4/ul
Ret ([…], time 14 day): 1.6%
WBC ([…], time 14 day): 99.7 x10_2/uL
APTT ([…], time 28 day): 15.3 s
Bas ([…], time 28 day): 0%
Eos ([…], time 28 day): 0.8%
Fbg ([…], time 28 day): 180.4 mg/dL
Hb ([…], time 28 day): 15.5 g/dL
Ht ([…], time 28 day): 45.8%
Lym ([…], time 28 day): 84.6%
MCH ([…], time 28 day): 19.6 pg
MCHC ([…], time 28 day): 33.8%
MCV ([…], time 28 day): 57.9 fL
Mono ([…], time 28 day): 4.8%
Neu ([…], time 28 day): 9.8%
PT ([…], time 28 day): 14.8 s
Plat ([…], time 28 day): 86 x10_4/uL
RBC ([…], time 28 day): 791.8 x10_4/ul
Ret ([…], time 28 day): 0.7%
WBC ([…], time 28 day): 66.5 x10_2/uL
KIDNEY_L ([…], time 7 day): 0.9 g
KIDNEY_R ([…], time 7 day): 0.9 g
KIDNEY_TOTAL ([…], time 7 day): 1.8 g
KIDNEY_L ([…], time 14 day): 0.9 g
KIDNEY_R ([…], time 14 day): 0.9 g
KIDNEY_TOTAL ([…], time 14 day): 1.9 g
KIDNEY_L ([…], time 28 day): 0.8 g
KIDNEY_R ([…], time 28 day): 0.8 g
KIDNEY_TOTAL ([…], time 28 day): 1.6 g
LIVER ([…], time 7 day): 12.7 g
LIVER ([…], time 14 day): 12 g
LIVER ([…], time 28 day): 9.8 g
A/G ([…], time 7 day): 1.8
ALP ([…], time 7 day): 839.6 IU/L
ALT ([…], time 7 day): 29.6 IU/L
AST ([…], time 7 day): 57.8 IU/L
BUN ([…], time 7 day): 20.6 mg/dL
CRE ([…], time 7 day): 0.5 mg/dL
Ca ([…], time 7 day): 11.5 mg/dL
Cl ([…], time 7 day): 106.8 meq/L
DBIL ([…], time 7 day): 0.016 mg/dL
GLC ([…], time 7 day): 172 mg/dL
IP ([…], time 7 day): 6.8 mg/dL
K ([…], time 7 day): 4.5 meq/L
LDH ([…], time 7 day): 161.4 IU/L
Na ([…], time 7 day): 140.2 meq/L
PL ([…], time 7 day): 166.6 mg/dL
RALB ([…], time 7 day): 4.3 g/dL
TBIL ([…], time 7 day): 0.3 mg/dL
TC ([…], time 7 day): 101.6 mg/dL
TG ([…], time 7 day): 79.6 mg/dL
TP ([…], time 7 day): 6.7 g/dL
gamma-GTP ([…], time 7 day): 1.2 IU/L
A/G ([…], time 14 day): 1.8
ALP ([…], time 14 day): 489.4 IU/L
ALT ([…], time 14 day): 27.8 IU/L
AST ([…], time 14 day): 56.4 IU/L
BUN ([…], time 14 day): 23.4 mg/dL
CRE ([…], time 14 day): 0.7 mg/dL
Ca ([…], time 14 day): 11.4 mg/dL
Cl ([…], time 14 day): 107.4 meq/L
DBIL ([…], time 14 day): 0.016 mg/dL
GLC ([…], time 14 day): 176.4 mg/dL
IP ([…], time 14 day): 6.3 mg/dL
K ([…], time 14 day): 4 meq/L
LDH ([…], time 14 day): 152.8 IU/L
Na ([…], time 14 day): 141.8 meq/L
PL ([…], time 14 day): 144.8 mg/dL
RALB ([…], time 14 day): 4.4 g/dL
TBIL ([…], time 14 day): 0.2 mg/dL
TC ([…], time 14 day): 94.2 mg/dL
TG ([…], time 14 day): 32.6 mg/dL
TP ([…], time 14 day): 7 g/dL
gamma-GTP ([…], time 14 day): 1.6 IU/L
A/G ([…], time 28 day): 2
ALP ([…], time 28 day): 528 IU/L
ALT ([…], time 28 day): 34 IU/L
AST ([…], time 28 day): 65.4 IU/L
BUN ([…], time 28 day): 26.8 mg/dL
CRE ([…], time 28 day): 0.7 mg/dL
Ca ([…], time 28 day): 10.8 mg/dL
Cl ([…], time 28 day): 108 meq/L
DBIL ([…], time 28 day): 0.054 mg/dL
GLC ([…], time 28 day): 162 mg/dL
IP ([…], time 28 day): 5.5 mg/dL
K ([…], time 28 day): 4.1 meq/L
LDH ([…], time 28 day): 121.8 IU/L
Na ([…], time 28 day): 143.6 meq/L
PL ([…], time 28 day): 153 mg/dL
RALB ([…], time 28 day): 4.5 g/dL
TBIL ([…], time 28 day): 0.2 mg/dL
TC ([…], time 28 day): 101.2 mg/dL
TG ([…], time 28 day): 34.6 mg/dL
TP ([…], time 28 day): 6.8 g/dL
gamma-GTP ([…], time 28 day): 2.8 IU/L
